The values below come from US20260144808A1, “TREATMENT OF REPEAT EXPANSION DISEASE” (The Johns Hopkins University, priority 2022, published 2026).

The test system of one series is C9orf72 V2 transcripts. Put plainly: RT-qPCR analysis of C9V2 mRNA levels in human RPE1 cells after drug treatment. The class given is cell-based. The note with it: 24 h; for levels of C9orf72 V2 transcripts: vs DMSO, FIG. 13J; for C9V2 mRNA, as measured by RT-qPCR: increasing concentrations of TM or TG, FIG. 13G. As to the method: (§1) Cell culture, drug treatment, lentiviral shRNA knockdown, and live-cell imaging—HEK293 cells and mouse embryonic fibroblast (MEF) cells were cultured in DMEM containing 10% FBS. Human retinal pigment epithelial 1 (RPE1) cells were cultured in DMEM/F12 containing 10% FBS and 0.01 mg/ml hygromycin B. Human B lymphocytes were cultured in RPMI 1640 medium containing 15% FBS. Human iPSCs were obtained from the NINDS Human Cell and Data Repository and maintained in StemFlex medium (Gibco, A3349401), with medium exchange every other day. All cell lines were checked regularly for mycoplasma contamination. To induce cell stress, RPE1 cells were treated with thapsigargin (30 nM) or tunicamycin (5 μg/ml) for 24 h, and B lymphocytes were treated with thapsigargin (40 nM) or tunicamycin (1 μg/ml) for 24 h. To express PR82, RPE1 cells were transfected with the pLenti-PR82 plasmid and cultured for 48 h.
(§2) Quantitative PCR— Total RNAs were extracted with an RNeasy Plus mini kit (Qiagen, 74136), and cDNAs were synthesized using QuantiTect reverse transcription reagents (Qiagen, 205313). qPCR reactions were carried out on a Bio-Rad thermal cycler using PowerUp SYBR Green Master Mix (ThermoFisher Scientific). The primer sets for C9orf72 transcripts V1, V2, and V3 were described previously (Gendron et al., 2017, incorporated herein by reference). The expression of C9orf72 pre-mRNA was measured with a pair of primers targeted to the junction region between exon 2 and intron 3 (SEQ ID NO: 11 and 12). The mRNA expression levels were analyzed by the ΔΔCt method and normalized against housekeeping genes. In the promoter analysis, the EGFP transcription level was normalized to the GAPDH transcript and the plasmid-encoded ampicillin resistance (AmpR) transcript to exclude any bias induced by differential transfection efficiency.
(Real-time PCR tracks product formation cycle by cycle.)

In series [1] the test system is mutant SOD1 mouse model of ALS. The note with it: Ryu et al., 2005; cited from earlier work.
The subject of a further series is C9HRE iMNs. The experiment in a line: Neuronal survival of C9HRE iMNs under tunicamycin stress, calcein-AM staining. Type of series: cell-based, human. As to the method: (§3) Motor neuron differentiation of human iPS cells and experimental analyses—The differentiation of iPSCs into motor neurons was performed as previously described (Liu et al., 2018). In brief, iPSCs were seeded onto Matrigel-coated plates and differentiated into neuroepithelial progenitor cells (NEPCs) by culturing 6 days in neural medium (1:1 DMEM/F12:neurobasal medium. GlutaMax, N2 supplement, B27 supplement, and ascorbic acid) containing 3 μM […], 2 μM SB431542, and 2 μM DMH-1. NEPCs were dissociated with dispase (1 U/ml) and split into new plates coated with Matrigel at a ratio of about 1:6. NEPCs were differentiated into motor neuron progenitor cells (MNPCs) using neural medium supplemented with 1 μM CHIR99021, 2 μM SB431542, 2 μM DMH-1, 0.1 μM retinoic acid (RA), and 0.5 μM purmorphamine. After culturing for 6 days, MNPCS were dissociated and cultured in suspension using neural medium containing 0.5 μM RA and 0.1 μM purmorphamine. Six days later, neural spheres were dissociated and plated onto a Matrigel-coated plate. Adherent neural spheres were cultured in neural medium supplemented with 0.5 μM RA, 0.1 μM purmorphamine, and 0.1 μM compound E. After 12 days, mature motor neurons were provided for experiments. The medium was changed every other day during the entire differentiation period.
For knockdown experiments on motor neurons, iMNs were infected twice with the shRNA-expressing lentiviruses, on day 10 and day 12 at the final differentiation stage, and the cells were used on day 15 to allow for efficient DAXX knockdown. Mature iMNs were stressed with tunicamycin (5 μg/ml) in the presence of Na-Phen (10 μM) or 5-aza-2 ([…]) for the indicated times, and neuronal survival at each time point was measured by calcein-AM staining. In brief, iMNs were stained with 3 μM calcein-AM (Invitrogen, C1430), and the fluorescence of surviving iMNs was read using a plate reader (Synergy H1 Hybrid) with excitation/emission at 485 nm/535 nm. Optical fields with calcein-positive iMNs were randomly selected and images captured using a fluorescence microscope (Nikon Eclipse TS100).

Another series deals with C9orf72 V2 promoter. The experiment in a line: ChIP-qPCR of H3K9me3 and H3K27ac at the C9orf72 V2 promoter in human RPE1 cells. The note with it: 24 h, vs DMSO, FIG. 13I. The class given is cell-based. The method, then: as §1
Chromatin immunoprecipitation qPCR—ChIP-qPCR analysis of RPE1 cells, B lymphocytes, and iPSC-differentiated motor neurons was performed by using a CHIP assay kit (Millipore Sigma, 17-295). In brief, protein complexes were crosslinked with 1% formaldehyde at 37° C. for 10 min and quenched with glycine at a final concentration of 125 mM at 37° C. for 5 min. […]

The subject of series [2] is C9orf72 protein and V2 mRNA. Put plainly: Stress-induced C9orf72 expression in control and C9HRE iMNs (immunoblotting, RT-qPCR). The class given is cell-based, human. The note with it: tunicamycin 5 μg/ml, 24 h. The method, then:
as §3
(§4) Quantitative PCR— Total RNAs were extracted with an RNeasy Plus mini kit (Qiagen, 74136), and cDNAs were synthesized using QuantiTect reverse transcription reagents (Qiagen, 205313). qPCR reactions were carried out on a Bio-Rad thermal cycler using PowerUp SYBR Green Master Mix (ThermoFisher Scientific). […] The expression of C9orf72 pre-mRNA was measured with a pair of primers targeted to the junction region between exon 2 and intron 3 (SEQ ID NO: 11 and 12). The mRNA expression levels were analyzed by the ΔΔCt method and normalized against housekeeping genes. […]
(§5) Protein concentrations were measured by the bicinchoninic acid assay (ThermoFisher, 23225). […] Western blot images were captured by an Odyssey scanner (LI-COR) and analyzed with Image Studio (version 5.2.5). […]
(In western blotting, separated proteins are transferred to a membrane and probed.)

A further series has as its system C9orf72 protein and mRNA. The experiment in a line: Stress-induced C9orf72 expression in control and C9HRE B lymphocytes (immunoblotting, RT-qPCR). The class given is cell-based, human. The note with it: tunicamycin 1 μg/ml or thapsigargin 40 nM, 24 h; for dynamic regulation of C9orf72 expression: B lymphocytes from C9HRE patients; for stress-responsive induction of C9orf72 expression at both the protein and mRNA levels: normal B lymphocytes. The method, then: as §1, §2
Immunoblotting—Cultured cells were washed twice with PBS and lysed in cold RIPA buffer containing 50 mM Tris (pH 7.5), 0.5% SDS, 150 mM NaCl, 0.5% NP40, 20 mM EDTA, 1 mM PMSF, and Protease Inhibitor Cocktail (1:200, Millipore Sigma, P8340).
as §5

The next series relates to C9V2 mRNA. Put plainly: RT-qPCR analysis of C9V2 mRNA in HEK293 cells after stressor treatment. The class given is cell-based, human. The note with it: increasing concentrations of TM or TG, 24 h, FIG. 13F. As to the method:
as §1, with “To express PR82, RPE1 cells were transfected with the pLenti-PR82 plasmid and cultured for 48 h.” left out
as §4

For a further series, the target named is DAXX (Homo sapiens, UniProt Q9UER7 Q9UER7:1-740). The experiment in a line: EMSA; significantly preferential over random control; 50 nM probe, 10 mM Tris pH 7.5, 1 mM EDTA, 0.1 mM DTT, BSA, 5% glycerol, RT 30 min. The note with it: tags: Flag-DAXX (Flag-Daxx/pRK5, Addgene 27974), anti-Flag M2 purified from HEK293 per Methods; label: 5' Alexa Fluor 488 on one strand. As to the method:
Several assays were used to validate the interaction between DAXX and the G4C2 repeat dsDNA. […] Next, experiments were conducted to test whether DAXX protein and G4C2 repeat dsDNA interact directly. In these experiments, human DAXX protein (FIG. 8D) was purified and an electrophoresis mobility shift assay (EMSA) was performed using 5′ AlexaFluor 488-labeled (G4C2)₁₀ dsDNA or a length-matched random sequence control. […] In addition, experiments were performed to establish the association of endogenous DAXX with the expanded C9orf72 (G4C2)n DNA repeats in situ. In these experiments, DNA fluorescent in situ hybridization (FISH) was used to immunostain DAXX on multiple lines of ALS and/or FTD patient lymphocytes carrying C9orf72 HRE mutations. A co-localization between the DAXX immunostaining and FISH staining at the C9HRE locus was indicated by a well-demarcated punctum present only in the nuclei of patient cells and not in the control cells (FIG. 1A).
(Mobility shift assays separate free from complexed probe on a gel.)

Sequence of DAXX (Q9UER7 whole entry, one chain of several): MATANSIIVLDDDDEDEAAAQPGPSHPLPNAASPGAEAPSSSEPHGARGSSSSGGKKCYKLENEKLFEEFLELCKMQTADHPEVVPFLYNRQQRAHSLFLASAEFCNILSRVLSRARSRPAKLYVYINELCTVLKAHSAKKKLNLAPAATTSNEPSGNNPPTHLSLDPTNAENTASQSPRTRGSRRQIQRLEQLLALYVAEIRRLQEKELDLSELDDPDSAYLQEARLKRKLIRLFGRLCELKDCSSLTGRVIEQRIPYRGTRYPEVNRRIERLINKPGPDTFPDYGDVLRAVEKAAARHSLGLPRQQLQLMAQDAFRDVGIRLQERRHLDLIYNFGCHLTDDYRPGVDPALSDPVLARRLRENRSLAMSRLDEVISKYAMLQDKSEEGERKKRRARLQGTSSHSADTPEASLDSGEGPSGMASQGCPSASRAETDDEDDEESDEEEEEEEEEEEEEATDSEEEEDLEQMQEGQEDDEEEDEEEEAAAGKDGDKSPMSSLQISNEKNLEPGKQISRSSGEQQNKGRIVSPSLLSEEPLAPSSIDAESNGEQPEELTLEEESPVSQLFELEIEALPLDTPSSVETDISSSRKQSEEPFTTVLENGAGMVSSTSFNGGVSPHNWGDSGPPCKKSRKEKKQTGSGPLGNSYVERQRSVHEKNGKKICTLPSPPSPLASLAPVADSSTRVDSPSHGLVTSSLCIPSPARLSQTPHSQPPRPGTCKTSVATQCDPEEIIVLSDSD

Consider `O=C([O-])CCCc1ccccc1.[Na+]` [Na-Phen, sodium phenylbutyrate], for which the “levels of C9orf72 V2 transcripts” value in the series on C9orf72 V2 transcripts (Na-Phen 10 μM) is reported as “significantly upregulated”. The “survival in a mutant SOD1 mouse model of ALS” value in series [1] is given as “prolongs the survival”. For the same molecule, the “protection of C9HRE iMNs from tunicamycin-induced stress” value in the series on C9HRE iMNs (TM 5 μg/ml with Na-Phen 10 μM, vs DMSO, FIG. 7C, D) is “robust protection”.

As for tunicamycin, the “levels of the active marker H3K27ac at the C9orf72 V2 promoter” value in the series with C9orf72 V2 promoter (TM 5 μg/ml) is “elevated”. In addition, the “tunicamycin-induced upregulation of C9orf72 expression” value in series [2] (iMNs derived from C9HRE patients, FIG. 5A-C) is listed as “absent”. For the same molecule, the C9orf72 protein levels result in series [2] (iMNs from healthy individuals, vs DMSO, FIG. 5A-B) was “significantly increased”. Besides, in series [2] (iMNs from healthy individuals, vs DMSO, FIG. 5C), the “C9orf72 V2 mRNA levels” value is on record as “significantly increased”. Also, in the series with C9orf72 protein and mRNA, the “dynamic regulation of C9orf72 expression” value is “lost”; the “stress-responsive induction of C9orf72 expression at both the protein and mRNA levels” value is reported as “observed”. Moreover, the “C9V2 mRNA, as measured by RT-qPCR” value in the series with C9orf72 V2 transcripts is “stress-dependent induction”. Also, the “loss of C9HRE iMNs” value in the series with C9HRE iMNs (tunicamycin 5 μg/ml alone, FIG. 7A, B) is given as “time-dependent loss”. In the series with C9V2 mRNA, the “C9V2 mRNA, as measured by RT-qPCR” value is “stress-dependent induction”.

Take `Nc1ncn([C@H]2C[C@H](O)[C@@H](CO)O2)c(=O)n1` [Compound 5-aza-2, 5-aza-2′-deoxycytidine]: in the series on C9orf72 V2 transcripts (5-aza-2 2 μM), the “levels of C9orf72 V2 transcripts” value was “significantly upregulated”. The “survival of C9HRE iMNs exposed to tunicamycin” value in the series with C9HRE iMNs (TM 5 μg/ml with 5-aza-2 2 μM, vs DMSO, FIG. 7C, D) is on record as “significant increase”.

As for `C/C=C(/C)C(=O)O[C@H]1C(C)=C2[C@H]([C@@H]1OC(=O)CCCCCCC)[C@@](C)(OC(C)=O)C[C@H](OC(=O)CCC)[C@@]1(O)[C@H]2OC(=O)[C@@]1(C)O` [thapsigargin], the “levels of the repressive marker H3K9me3 at the C9orf72 V2 promoter” value with C9orf72 V2 promoter (TG 30 nM) is on record as “decreased”. Besides, the “dynamic regulation of C9orf72 expression” value in the series with C9orf72 protein and mRNA was “lost”. The “stress-responsive induction of C9orf72 expression at both the protein and mRNA levels” value in the series on C9orf72 protein and mRNA is reported as “observed”. Besides, the “C9V2 mRNA, as measured by RT-qPCR” value in the series with C9orf72 V2 transcripts and in the series on C9V2 mRNA was “stress-dependent induction” in each case.

B1: (G4C2)10 dsDNA (dsDNA)
DNA 1: GGGGCCGGGGCCGGGGCCGGGGCCGGGGCCGGGGCCGGGGCCGGGGCCGGGGCCGGGGCC
DNA 2: GGCCCCGGCCCCGGCCCCGGCCCCGGCCCCGGCCCCGGCCCCGGCCCCGGCCCCGGCCCC
For B1, the binding result with DAXX is on record as “binds”.
